We go through three compounds from ChEMBL document CHEMBL1201862, “PubChem BioAssay data set” (2004).

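Briefly, cells in 96-well plates were exposed to five compound concentrations for 48 h, and endpoints were estimated by linear interpolation. Abbreviation: GI50, concentration required for 50% inhibition of growth.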 The source made the active and inactive calls. No stated cut-off is given here; in the data, active = GI50 up to about 1.1 µM and inactive = higher. Where a SMILES comes first, the peptide text is derived from it. The star is where a group is joined. Cbz = O=C(OCc1ccccc1)*

Test systems include COLO 205; CCRF-CEM; Hs-578T; MDA-N; NCI-H226; HCT-15; HOP-62; K562; UACC-62; A498; SF-268; M14; OVCAR-5; NCI-H460; TK-10; ACHN; MDA-MB-231; T47D; DU-145; KM12.
Common to all, as to test: NCI anticancer screen, dose series, 48 h

Turning to `O=C(O)c1ccc(N2C=[N+]3C(=Nc4ccccc43)C2)cc1`, the GI50 was > 100 µM (inactive) in the test with COLO 205; > 100 µM (inactive) in the test on CCRF-CEM; > 100 µM (inactive) in the test with Hs-578T; > 100 µM (inactive) in the test on MDA-N; > 100 µM (inactive) with NCI-H226; more than 100 µM in the test on HCT-15. Also, the GI50 with HOP-62, in the test on K562, with UACC-62, in the test with A498, in the test with SF-268 and in the test with M14 was > 100 µM (inactive) in each case. In addition, the GI50 with OVCAR-5, with NCI-H460, in the test on TK-10, in the test on ACHN, in the test on MDA-MB-231 and with T47D was > 100 µM (inactive) each time. Moreover, the GI50 in the test with DU-145 and with KM12 was > 100 µM (inactive) throughout.
As for `COc1cc2c(cc1Cc1c(F)cccc1Cl)nc(-c1c(F)cccc1Cl)n2Cc1c(F)cccc1Cl`, the GI50 with COLO 205 was 44.8 µM (inactive); in the test with CCRF-CEM it was 2.1 µM (inactive); in the test on Hs-578T it was 21.3 µM (inactive); in the test with MDA-N, 20.6 µM (inactive); with NCI-H226, 34 µM (inactive); in the test on HCT-15, 62.7 µM. The GI50 in the test on HOP-62 was 36.1 µM (inactive); in the test with K562 it was 45.3 µM (inactive); in the test with UACC-62 it was 56.4 µM (inactive); in the test with A498, 27.3 µM (inactive); in the test on SF-268 it was 58.9 µM (inactive); with M14 it was > 100 µM (inactive). The GI50 was 48.8 µM (inactive) in the test on OVCAR-5; 22.5 µM (inactive) with NCI-H460; > 100 µM (inactive) in the test with TK-10; 31.8 µM (inactive) with ACHN; 31.8 µM (inactive) in the test with MDA-MB-231; 10.2 µM (inactive) in the test on T47D. For the same compound, the GI50 with DU-145 was 28.1 µM (inactive); in the test on KM12 it was 28.4 µM (inactive).
Turning to `CCOC(=O)CCC(NC(=O)C(Cc1ccccc1)NC(=O)OCc1ccccc1)C(=O)OCC` (stereo not drawn) (Cbz-Phe-Glu(OEt)-OEt; configuration not given here), the GI50 was 19.4 µM (inactive) in the test with COLO 205; 31.3 µM (inactive) in the test with CCRF-CEM; 14.8 µM (inactive) with Hs-578T; 17.2 µM (inactive) in the test with MDA-N; 16.6 µM (inactive) in the test with NCI-H226; 20.1 µM in the test with HCT-15. Moreover, the GI50 is 18.5 µM (inactive) in the test with HOP-62; 37.4 µM (inactive) in the test on K562; 17.9 µM (inactive) in the test with UACC-62; 21.2 µM (inactive) in the test on A498; 16.2 µM (inactive) with SF-268; 15.9 µM (inactive) with M14. Moreover, the GI50 is 16.7 µM (inactive) in the test with OVCAR-5; 20.5 µM (inactive) in the test with NCI-H460; 19.4 µM (inactive) in the test with TK-10; 17.4 µM (inactive) in the test with ACHN; 14.9 µM (inactive) with MDA-MB-231; 16.2 µM (inactive) in the test on T47D. Besides, the GI50 was 6.58 µM (inactive) with DU-145 and 17 µM (inactive) in the test with KM12.
